For nine compounds, logP results are on record in ChEMBL document CHEMBL1135276, “Novel estimation of lipophilic behaviour of polychlorinated biphenyls” (Bioorg Med Chem Lett, 2002).

This data set is described as follows: Partition coefficient (logP). The note with it: octanol/water.
On to `Clc1ccc(Cl)c(-c2ccccc2Cl)c1`, for which the logP (as a rule, the decadic logarithm of the partition coefficient of the neutral form, usually between octanol and water) came to 5.6.

In turn, `Clc1ccc(Cl)c(-c2cc(Cl)c(Cl)cc2Cl)c1` gave a logP of 6.49.

The compound `Clc1cc(Cl)c(Cl)c(-c2c(Cl)c(Cl)cc(Cl)c2Cl)c1Cl` displayed a logP of 7.15.

With `Clc1ccc(-c2ccc(Cl)cc2)cc1`, the logP amounted to 5.58.

For `Clc1cc(-c2cc(Cl)c(Cl)c(Cl)c2)cc(Cl)c1Cl`, the logP stood at 7.55.

`Clc1ccc(-c2c(Cl)cc(Cl)c(Cl)c2Cl)c(Cl)c1Cl` displayed a logP of 6.99.

Take `Clc1c(Cl)c(Cl)c(-c2ccccc2)c(Cl)c1Cl`: the logP was 6.52.

As to `Clc1ccccc1-c1ccccc1Cl`, the logP was 4.73.

Take `Clc1cc(Cl)c(-c2cc(Cl)c(Cl)cc2Cl)cc1Cl` [2,2',4,4',5,5'-HEXACHLOROBIPHENYL]: the logP turned out to be 6.8.
